Assay results: US9579314B2 (priority 2015, dated 2017)

How the values were obtained:
Human β2 adrenoceptor = Human β2 adrenoceptor (Homo sapiens, UniProt P07550); settings: read-out: B2 binding affinity
Human M3 receptor = Human M3 receptor (Homo sapiens, UniProt P20309); settings: read-out: M3 binding affinity
Human M3 receptor, sequence (P20309 whole entry): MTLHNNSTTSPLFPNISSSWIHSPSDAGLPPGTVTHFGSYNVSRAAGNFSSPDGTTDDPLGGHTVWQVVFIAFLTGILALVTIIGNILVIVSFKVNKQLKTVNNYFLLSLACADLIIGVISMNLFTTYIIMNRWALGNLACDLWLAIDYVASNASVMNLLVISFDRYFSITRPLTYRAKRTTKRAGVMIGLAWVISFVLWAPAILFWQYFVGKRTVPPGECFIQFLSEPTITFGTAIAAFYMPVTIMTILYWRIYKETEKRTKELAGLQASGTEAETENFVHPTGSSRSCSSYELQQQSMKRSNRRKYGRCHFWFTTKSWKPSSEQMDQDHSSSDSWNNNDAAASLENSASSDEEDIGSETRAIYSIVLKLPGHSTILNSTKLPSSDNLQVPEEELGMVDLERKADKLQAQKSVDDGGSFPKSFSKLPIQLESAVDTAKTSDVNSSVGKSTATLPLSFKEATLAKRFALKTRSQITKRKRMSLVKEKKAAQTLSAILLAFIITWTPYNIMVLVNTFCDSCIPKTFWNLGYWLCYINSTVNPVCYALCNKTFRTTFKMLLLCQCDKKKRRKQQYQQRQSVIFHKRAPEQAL

Human β2 adrenoceptor, sequence (P07550 whole entry): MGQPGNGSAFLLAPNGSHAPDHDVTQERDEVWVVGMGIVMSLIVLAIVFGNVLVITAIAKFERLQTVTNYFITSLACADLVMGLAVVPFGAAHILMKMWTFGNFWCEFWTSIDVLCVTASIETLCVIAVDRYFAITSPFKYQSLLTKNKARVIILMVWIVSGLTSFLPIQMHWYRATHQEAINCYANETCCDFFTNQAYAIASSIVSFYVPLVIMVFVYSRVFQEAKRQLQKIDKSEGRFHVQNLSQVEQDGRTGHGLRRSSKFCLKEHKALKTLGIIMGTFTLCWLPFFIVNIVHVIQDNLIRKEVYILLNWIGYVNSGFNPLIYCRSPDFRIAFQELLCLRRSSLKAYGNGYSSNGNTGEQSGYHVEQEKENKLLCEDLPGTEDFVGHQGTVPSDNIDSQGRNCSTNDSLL

SMILES: O=C(COc1cccc([C@](O)(C(=O)OCC2CCN(Cc3ccccc3)CC2)c2ccccc2)c1)NCCNC(=O)c1ccc(CNC[C@H](O)c2ccc(O)c3[nH]c(=O)ccc23)cc1 [Compound 57, (1-Benzylpiperidin-4-yl)methyl (S)-2-hydroxy-2-(3-(2-((2-(4-((((R)-2-hydroxy-2-(8-hydroxy-2-oxo-1,2-dihydroquinolin-5-yl)ethyl)amino)methyl)benzamido)ethyl)amino)-2-oxoethoxy)phenyl)-2-phenylacetate]
- IC50 (Human β2 adrenoceptor): 300 to 3000 pM
- IC50 (Human M3 receptor): 300 to 3000 pM

SMILES: O=C(COc1cccc([C@](O)(C(=O)OCC2CCN(Cc3ccccc3)CC2)c2ccccc2)c1)N1CCN(C(=O)c2ccc(CNC[C@H](O)c3ccc(O)c4[nH]c(=O)ccc34)cc2)CC1 [Compound 58, (1-benzylpiperidin-4-yl)methyl (S)-2-hydroxy-2-(3-(2-(4-(4-((((R)-2-hydroxy-2-(8-hydroxy-2-oxo-1,2-dihydroquinolin-5-yl)ethyl)amino)methyl)benzoyl)piperazin-1-yl)-2-oxoethoxy)phenyl)-2-phenylacetate]
- IC50 (Human β2 adrenoceptor): 300 to 3000 pM
- IC50 (Human M3 receptor): 300 to 3000 pM

SMILES: O=C(NC1CCN(C(=O)COc2cccc([C@](O)(C(=O)OCC3CCN(Cc4ccccc4)CC3)c3ccccc3)c2)CC1)c1ccc(CNC[C@H](O)c2ccc(O)c3[nH]c(=O)ccc23)cc1 [Compound 59, (1-benzylpiperidin-4-yl)methyl (S)-2-hydroxy-2-(3-(2-(4-(4-((((R)-2-hydroxy-2-(8-hydroxy-2-oxo-1,2-dihydroquinolin-5-yl)ethyl)amino)methyl)benzamido)piperidin-1-yl)-2-oxoethoxy)phenyl)-2-phenylacetate]
- IC50 (Human β2 adrenoceptor): < 300 pM
- IC50 (Human M3 receptor): 300 to 3000 pM

SMILES: CN(CCNC(=O)c1ccc(CNC[C@H](O)c2ccc(O)c3[nH]c(=O)ccc23)cc1)C(=O)COc1cccc([C@](O)(C(=O)OCC2CCN(Cc3ccccc3)CC2)c2ccccc2)c1 [Compound 60, (1-benzylpiperidin-4-yl)methyl (S)-2-hydroxy-2-(3-(2-((2-(4-((((R)-2-hydroxy-2-(8-hydroxy-2-oxo-1,2-dihydroquinolin-5-yl)ethyl)amino)methyl)benzamido)ethyl)(methyl)amino)-2-oxoethoxy)phenyl)-2-phenylacetate]
- IC50 (Human β2 adrenoceptor): 300 to 3000 pM
- IC50 (Human M3 receptor): 300 to 3000 pM

SMILES: O=C(NCC1CCN(C(=O)COc2cccc([C@](O)(C(=O)OCC3CCN(Cc4ccccc4)CC3)c3ccccc3)c2)CC1)c1ccc(CNC[C@H](O)c2ccc(O)c3[nH]c(=O)ccc23)cc1 [Compound 61, (1-benzylpiperidin-4-yl)methyl (S)-2-hydroxy-2-(3-(2-(4-((4-((((R)-2-hydroxy-2-(8-hydroxy-2-oxo-1,2-dihydroquinolin-5-yl)ethyl)amino)methyl)benzamido)methyl)piperidin-1-yl)-2-oxoethoxy)phenyl)-2-phenylacetate]
- IC50 (Human β2 adrenoceptor): < 300 pM
- IC50 (Human M3 receptor): 300 to 3000 pM

SMILES: O=C(COc1cccc([C@](O)(C(=O)OCC2CCN(Cc3ccccc3)CC2)c2ccccc2)c1)N[C@H]1CC[C@H](NC(=O)c2ccc(CNC[C@H](O)c3ccc(O)c4[nH]c(=O)ccc34)cc2)CC1 [Compound 62, (1-benzylpiperidin-4-yl)methyl (S)-2-hydroxy-2-(3-(2-(((1R,4S)-4-(4-((((R)-2-hydroxy-2-(8-hydroxy-2-oxo-1,2-dihydroquinolin-5-yl)ethyl)amino)methyl)benzamido)cyclohexyl)amino)-2-oxoethoxy)phenyl)-2-phenylacetate]
- IC50 (Human β2 adrenoceptor): < 300 pM
- IC50 (Human M3 receptor): < 300 pM

SMILES: O=C(COc1cccc([C@](O)(C(=O)OCC2CCN(Cc3ccccc3)CC2)c2ccccc2)c1)N[C@H]1C[C@H](NC(=O)c2ccc(CNC[C@H](O)c3ccc(O)c4[nH]c(=O)ccc34)cc2)C1 [Compound 63, (1-benzylpiperidin-4-yl)methyl (S)-2-hydroxy-2-(3-(2-(((1R,3S)-3-(4-((((R)-2-hydroxy-2-(8-hydroxy-2-oxo-1,2-dihydroquinolin-5-yl)ethyl)amino)methyl)benzamido)cyclobutyl)amino)-2-oxoethoxy)phenyl)-2-phenylacetate]
- IC50 (Human β2 adrenoceptor): < 300 pM
- IC50 (Human M3 receptor): < 300 pM

SMILES: O=C(COc1cccc([C@](O)(C(=O)OCC2CCN(Cc3ccccc3)CC2)c2ccccc2)c1)N1CCC2(CC1)CCN(C(=O)c1ccc(CNC[C@H](O)c3ccc(O)c4[nH]c(=O)ccc34)cc1)CC2 [Compound 64, (1-benzylpiperidin-4-yl)methyl (S)-2-hydroxy-2-(3-(2-(9-(4-((((R)-2-hydroxy-2-(8-hydroxy-2-oxo-1,2-dihydroquinolin-5-yl)ethyl)amino)methyl)benzoyl)-3,9-diazaspiro[5.5]undecan-3-yl)-2-oxoethoxy)phenyl)-2-phenylacetate]
- IC50 (Human β2 adrenoceptor): 300 to 3000 pM
- IC50 (Human M3 receptor): < 300 pM

SMILES: O=C(COc1cccc([C@](O)(C(=O)OCC2CCN(Cc3ccccc3)CC2)c2ccccc2)c1)NC1CCN(C(=O)c2ccc(CNC[C@H](O)c3ccc(O)c4[nH]c(=O)ccc34)cc2)CC1 [Compound 65, (1-benzylpiperidin-4-yl)methyl (S)-2-hydroxy-2-(3-(2-((1-(4-((((R)-2-hydroxy-2-(8-hydroxy-2-oxo-1,2-dihydroquinolin-5-yl)ethyl)amino)methyl)benzoyl)piperidin-4-yl)amino)-2-oxoethoxy)phenyl)-2-phenylacetate]
- IC50 (Human β2 adrenoceptor): 300 to 3000 pM
- IC50 (Human M3 receptor): < 300 pM

SMILES: O=C(COc1cccc([C@](O)(C(=O)OCC2CCN(Cc3ccccc3)CC2)c2ccccc2)c1)NC1CN(C(=O)c2ccc(CNC[C@H](O)c3ccc(O)c4[nH]c(=O)ccc34)cc2)C1 [Compound 66, (1-benzylpiperidin-4-yl)methyl (S)-2-hydroxy-2-(3-(2-((1-(4-((((R)-2-hydroxy-2-(8-hydroxy-2-oxo-1,2-dihydroquinolin-5-yl)ethyl)amino)methyl)benzoyl)azetidin-3-yl)amino)-2-oxoethoxy)phenyl)-2-phenylacetate]
- IC50 (Human β2 adrenoceptor): < 300 pM
- IC50 (Human M3 receptor): 300 to 3000 pM

SMILES: O=C(NC1CN(C(=O)COc2cccc([C@](O)(C(=O)OCC3CCN(Cc4ccccc4)CC3)c3ccccc3)c2)C1)c1ccc(CNC[C@H](O)c2ccc(O)c3[nH]c(=O)ccc23)cc1 [Compound 67, (1-benzylpiperidin-4-yl)methyl (S)-2-hydroxy-2-(3-(2-(3-(4-((((R)-2-hydroxy-2-(8-hydroxy-2-oxo-1,2-dihydroquinolin-5-yl)ethyl)amino)methyl)benzamido)azetidin-1-yl)-2-oxoethoxy)phenyl)-2-phenylacetate]
- IC50 (Human β2 adrenoceptor): < 300 pM
- IC50 (Human M3 receptor): < 300 pM

SMILES: O=C(COc1cccc([C@](O)(C(=O)OCC2CCN(Cc3ccccc3)CC2)c2ccccc2)c1)N[C@@H]1CCN(C(=O)c2ccc(CNC[C@H](O)c3ccc(O)c4[nH]c(=O)ccc34)cc2)C1 [Compound 68, (1-benzylpiperidin-4-yl)methyl (S)-2-hydroxy-2-(3-(2-(((R)-1-(4-((((R)-2-hydroxy-2-(8-hydroxy-2-oxo-1,2-dihydroquinolin-5-yl)ethyl)amino)methyl)benzoyl)pyrrolidin-3-yl)amino)-2-oxoethoxy)phenyl)-2-phenylacetate]
- IC50 (Human β2 adrenoceptor): 300 to 3000 pM
- IC50 (Human M3 receptor): 300 to 3000 pM

SMILES: O=C(COc1cccc([C@](O)(C(=O)OCC2CCN(Cc3ccccc3)CC2)c2ccccc2)c1)N[C@H]1CCCN(C(=O)c2ccc(CNC[C@H](O)c3ccc(O)c4[nH]c(=O)ccc34)cc2)C1 [Compound 69, (1-benzylpiperidin-4-yl)methyl (S)-2-hydroxy-2-(3-(2-(((S)-1-(4-((((R)-2-hydroxy-2-(8-hydroxy-2-oxo-1,2-dihydroquinolin-5-yl)ethyl)amino)methyl)benzoyl)piperidin-3-yl)amino)-2-oxoethoxy)phenyl)-2-phenylacetate]
- IC50 (Human β2 adrenoceptor): 300 to 3000 pM
- IC50 (Human M3 receptor): 300 to 3000 pM

SMILES: O=C(COc1cccc([C@](O)(C(=O)OCC2CCN(Cc3ccccc3)CC2)c2ccccc2)c1)N[C@H]1CCN(C(=O)c2ccc(CNC[C@H](O)c3ccc(O)c4[nH]c(=O)ccc34)cc2)C1 [Compound 70, (1-benzylpiperidin-4-yl)methyl (S)-2-hydroxy-2-(3-(2-(((S)-1-(4-((((R)-2-hydroxy-2-(8-hydroxy-2-oxo-1,2-dihydroquinolin-5-yl)ethyl)amino)methyl)benzoyl)pyrrolidin-3-yl)amino)-2-oxoethoxy)phenyl)-2-phenylacetate]
- IC50 (Human β2 adrenoceptor): 300 to 3000 pM
- IC50 (Human M3 receptor): 300 to 3000 pM

SMILES: O=C(COc1cccc([C@](O)(C(=O)OCC2CCN(Cc3ccccc3)CC2)c2ccccc2)c1)N[C@@H]1CCCN(C(=O)c2ccc(CNC[C@H](O)c3ccc(O)c4[nH]c(=O)ccc34)cc2)C1 [Compound 71, (1-benzylpiperidin-4-yl)methyl (S)-2-hydroxy-2-(3-(2-(((R)-1-(4-((((R)-2-hydroxy-2-(8-hydroxy-2-oxo-1,2-dihydroquinolin-5-yl)ethyl)amino)methyl)benzoyl)piperidin-3-yl)amino)-2-oxoethoxy)phenyl)-2-phenylacetate]
- IC50 (Human β2 adrenoceptor): > 3000 pM
- IC50 (Human M3 receptor): 300 to 3000 pM

SMILES: O=C(N[C@H]1CCCN(C(=O)COc2cccc([C@](O)(C(=O)OCC3CCN(Cc4ccccc4)CC3)c3ccccc3)c2)C1)c1ccc(CNC[C@H](O)c2ccc(O)c3[nH]c(=O)ccc23)cc1 [Compound 72, (1-benzylpiperidin-4-yl)methyl (S)-2-hydroxy-2-(3-(2-((S)-3-(4-((((R)-2-hydroxy-2-(8-hydroxy-2-oxo-1,2-dihydroquinolin-5-yl)ethyl)amino)methyl)benzamido)piperidin-1-yl)-2-oxoethoxy)phenyl)-2-phenylacetate]
- IC50 (Human β2 adrenoceptor): > 3000 pM
- IC50 (Human M3 receptor): 300 to 3000 pM

SMILES: O=C(N[C@H]1CCN(C(=O)COc2cccc([C@](O)(C(=O)OCC3CCN(Cc4ccccc4)CC3)c3ccccc3)c2)C1)c1ccc(CNC[C@H](O)c2ccc(O)c3[nH]c(=O)ccc23)cc1 [Compound 73, (1-benzylpiperidin-4-yl)methyl (S)-2-hydroxy-2-(3-(2-((S)-3-(4-((((R)-2-hydroxy-2-(8-hydroxy-2-oxo-1,2-dihydroquinolin-5-yl)ethyl)amino)methyl)benzamido)pyrrolidin-1-yl)-2-oxoethoxy)phenyl)-2-phenylacetate]
- IC50 (Human β2 adrenoceptor): < 300 pM
- IC50 (Human M3 receptor): 300 to 3000 pM
